In brackets after ≈: the same amount, converted by molar mass.
test system: Candida albicans; test: Antifungal activity against Candida albicans ATCC MYA-2876 after 48 hrs by CLSI M27-A3 method; type: functional; settings: ATCC MYA-2876, 48 h

| MIC [µg/mL] | Compound |
| --- | --- |
| > 31.2 | C#CCOc1ccc(-c2nc3ccc(-c4nc5ccc(-c6nc7ccc(N8CCN(C)CC8)cc7[nH]6)cc5[nH]4)cc3[nH]2)cc1 |
| > 31.2 | CCCN1CCN(c2ccc3nc(-c4ccc5nc(-c6ccc(OCC)cc6)[nH]c5c4)[nH]c3c2)CC1 |
| 15.6 (≈ 33.4 µM) | CCOc1ccc(-c2nc3ccc(-c4nc5ccc(N6CCN(CC)CC6)cc5[nH]4)cc3[nH]2)cc1 |

| Compound | MIC [µg/mL] |
| --- | --- |
| C[C@@H](c1ncncc1F)[C@](O)(Cn1cncn1)c1ccc(F)cc1F [VORICONAZOLE] | 1.95 (≈ 5.58 µM) |

test system: Candida albicans; test: Antifungal activity against Candida albicans ATCC MYA-1237 after 48 hrs by CLSI M27-A3 method; type: functional; settings: ATCC MYA-1237, 48 h

| MIC [µg/mL] | Compound |
| --- | --- |
| > 31.2 | C#CCOc1ccc(-c2nc3ccc(-c4nc5ccc(-c6nc7ccc(N8CCN(C)CC8)cc7[nH]6)cc5[nH]4)cc3[nH]2)cc1 |
| > 31.2 | CCCN1CCN(c2ccc3nc(-c4ccc5nc(-c6ccc(OCC)cc6)[nH]c5c4)[nH]c3c2)CC1 |
| 15.6 (≈ 33.4 µM) | CCOc1ccc(-c2nc3ccc(-c4nc5ccc(N6CCN(CC)CC6)cc5[nH]4)cc3[nH]2)cc1 |

| Compound | MIC [µg/mL] |
| --- | --- |
| C[C@@H](c1ncncc1F)[C@](O)(Cn1cncn1)c1ccc(F)cc1F [VORICONAZOLE] | 7.8 (≈ 22.3 µM) |

test system: Candida parapsilosis; test: Antifungal activity against Candida parapsilosis ATCC 22019 after 48 hrs by CLSI M27-A3 method; type: functional; settings: Lodderomyces parapsilosis, ATCC 22019, 48 h

| MIC [µg/mL] | Compound |
| --- | --- |
| > 31.2 | C#CCOc1ccc(-c2nc3ccc(-c4nc5ccc(-c6nc7ccc(N8CCN(C)CC8)cc7[nH]6)cc5[nH]4)cc3[nH]2)cc1 |
| > 31.2 | CCCN1CCN(c2ccc3nc(-c4ccc5nc(-c6ccc(OCC)cc6)[nH]c5c4)[nH]c3c2)CC1 |
| 3.9 (≈ 8.36 µM) | CCOc1ccc(-c2nc3ccc(-c4nc5ccc(N6CCN(CC)CC6)cc5[nH]4)cc3[nH]2)cc1 |

| Compound | MIC [µg/mL] |
| --- | --- |
| C[C@@H](c1ncncc1F)[C@](O)(Cn1cncn1)c1ccc(F)cc1F [VORICONAZOLE] | < 0.03 |

test system: Candida albicans; test: Antifungal activity against Candida albicans ATCC MYA-90819 after 48 hrs by CLSI M27-A3 method; type: functional; settings: ATCC MYA-90819, 48 h

| MIC [µg/mL] | Compound |
| --- | --- |
| > 31.2 | C#CCOc1ccc(-c2nc3ccc(-c4nc5ccc(-c6nc7ccc(N8CCN(C)CC8)cc7[nH]6)cc5[nH]4)cc3[nH]2)cc1 |
| > 31.2 | CCCN1CCN(c2ccc3nc(-c4ccc5nc(-c6ccc(OCC)cc6)[nH]c5c4)[nH]c3c2)CC1 |
| 15.6 (≈ 33.4 µM) | CCOc1ccc(-c2nc3ccc(-c4nc5ccc(N6CCN(CC)CC6)cc5[nH]4)cc3[nH]2)cc1 |

| Compound | MIC [µg/mL] |
| --- | --- |
| C[C@@H](c1ncncc1F)[C@](O)(Cn1cncn1)c1ccc(F)cc1F [VORICONAZOLE] | 1.95 (≈ 5.58 µM) |

test system: Aspergillus terreus; test: Antifungal activity against Aspergillus terreus ATCC MYA3633 after 48 hrs by CLSI M38-A2 method; type: functional; settings: ATCC MYA3633, 48 h

| MIC [µg/mL] | Compound |
| --- | --- |
| 31.2 (≈ 53.9 µM) | C#CCOc1ccc(-c2nc3ccc(-c4nc5ccc(-c6nc7ccc(N8CCN(C)CC8)cc7[nH]6)cc5[nH]4)cc3[nH]2)cc1 |
| > 31.2 | CCCN1CCN(c2ccc3nc(-c4ccc5nc(-c6ccc(OCC)cc6)[nH]c5c4)[nH]c3c2)CC1 |
| 15.6 (≈ 33.4 µM) | CCOc1ccc(-c2nc3ccc(-c4nc5ccc(N6CCN(CC)CC6)cc5[nH]4)cc3[nH]2)cc1 |

| Compound | MIC [µg/mL] |
| --- | --- |
| C[C@@H](c1ncncc1F)[C@](O)(Cn1cncn1)c1ccc(F)cc1F [VORICONAZOLE] | 0.12 (≈ 0.344 µM) |

test system: Aspergillus nidulans; test: Antifungal activity against Aspergillus nidulans ATCC 38163 after 48 hrs by CLSI M38-A2 method; type: functional; settings: ATCC 38163, 48 h

| MIC [µg/mL] | Compound |
| --- | --- |
| 31.2 (≈ 53.9 µM) | C#CCOc1ccc(-c2nc3ccc(-c4nc5ccc(-c6nc7ccc(N8CCN(C)CC8)cc7[nH]6)cc5[nH]4)cc3[nH]2)cc1 |
| > 31.2 | CCCN1CCN(c2ccc3nc(-c4ccc5nc(-c6ccc(OCC)cc6)[nH]c5c4)[nH]c3c2)CC1 |
| 15.6 (≈ 33.4 µM) | CCOc1ccc(-c2nc3ccc(-c4nc5ccc(N6CCN(CC)CC6)cc5[nH]4)cc3[nH]2)cc1 |

| Compound | MIC [µg/mL] |
| --- | --- |
| C[C@@H](c1ncncc1F)[C@](O)(Cn1cncn1)c1ccc(F)cc1F [VORICONAZOLE] | 0.03 (≈ 0.0859 µM) |

test system: Candida albicans; test: Antifungal activity against Candida albicans ATCC 10231 after 48 hrs by CLSI M27-A3 method; type: functional; settings: ATCC 10231, 48 h

| MIC [µg/mL] | Compound |
| --- | --- |
| > 31.2 | C#CCOc1ccc(-c2nc3ccc(-c4nc5ccc(-c6nc7ccc(N8CCN(C)CC8)cc7[nH]6)cc5[nH]4)cc3[nH]2)cc1 |
| > 31.2 | CCCN1CCN(c2ccc3nc(-c4ccc5nc(-c6ccc(OCC)cc6)[nH]c5c4)[nH]c3c2)CC1 |
| 15.6 (≈ 33.4 µM) | CCOc1ccc(-c2nc3ccc(-c4nc5ccc(N6CCN(CC)CC6)cc5[nH]4)cc3[nH]2)cc1 |

test system: Candida albicans; test: Antifungal activity against Candida albicans ATCC 64124 after 48 hrs by CLSI M27-A3 method; type: functional; settings: ATCC 64124, 48 h

| MIC [µg/mL] | Compound |
| --- | --- |
| > 31.2 | C#CCOc1ccc(-c2nc3ccc(-c4nc5ccc(-c6nc7ccc(N8CCN(C)CC8)cc7[nH]6)cc5[nH]4)cc3[nH]2)cc1 |
| > 31.2 | CCCN1CCN(c2ccc3nc(-c4ccc5nc(-c6ccc(OCC)cc6)[nH]c5c4)[nH]c3c2)CC1 |
| 15.6 (≈ 33.4 µM) | CCOc1ccc(-c2nc3ccc(-c4nc5ccc(N6CCN(CC)CC6)cc5[nH]4)cc3[nH]2)cc1 |

| Compound | MIC [µg/mL] |
| --- | --- |
| C[C@@H](c1ncncc1F)[C@](O)(Cn1cncn1)c1ccc(F)cc1F [VORICONAZOLE] | 3.9 (≈ 11.2 µM) |

test system: Pichia kudriavzevii; test: Antifungal activity against Candida krusei ATCC 6258 after 48 hrs by CLSI M27-A3 method; type: functional; settings: ATCC 6258, 48 h

| MIC [µg/mL] | Compound |
| --- | --- |
| > 31.2 | C#CCOc1ccc(-c2nc3ccc(-c4nc5ccc(-c6nc7ccc(N8CCN(C)CC8)cc7[nH]6)cc5[nH]4)cc3[nH]2)cc1 |
| 15.6 (≈ 32.5 µM) | CCCN1CCN(c2ccc3nc(-c4ccc5nc(-c6ccc(OCC)cc6)[nH]c5c4)[nH]c3c2)CC1 |
| 15.6 (≈ 33.4 µM) | CCOc1ccc(-c2nc3ccc(-c4nc5ccc(N6CCN(CC)CC6)cc5[nH]4)cc3[nH]2)cc1 |

| Compound | MIC [µg/mL] |
| --- | --- |
| C[C@@H](c1ncncc1F)[C@](O)(Cn1cncn1)c1ccc(F)cc1F [VORICONAZOLE] | 0.12 (≈ 0.344 µM) |

test system: Nakaseomyces glabratus; test: Antifungal activity against Candida glabrata ATCC 2001 after 48 hrs by CLSI M27-A3 method; type: functional; settings: CBS 138, 48 h

| MIC [µg/mL] | Compound |
| --- | --- |
| 31.2 (≈ 53.9 µM) | C#CCOc1ccc(-c2nc3ccc(-c4nc5ccc(-c6nc7ccc(N8CCN(C)CC8)cc7[nH]6)cc5[nH]4)cc3[nH]2)cc1 |
| > 31.2 | CCCN1CCN(c2ccc3nc(-c4ccc5nc(-c6ccc(OCC)cc6)[nH]c5c4)[nH]c3c2)CC1 |
| 31.2 (≈ 66.9 µM) | CCOc1ccc(-c2nc3ccc(-c4nc5ccc(N6CCN(CC)CC6)cc5[nH]4)cc3[nH]2)cc1 |

test system: Aspergillus flavus; test: Antifungal activity against Aspergillus flavus ATCC MYA-3631 after 48 hrs by CLSI M38-A2 method; type: functional; settings: ATCC MYA-3631, 48 h

| MIC [µg/mL] | Compound |
| --- | --- |
| > 31.2 | C#CCOc1ccc(-c2nc3ccc(-c4nc5ccc(-c6nc7ccc(N8CCN(C)CC8)cc7[nH]6)cc5[nH]4)cc3[nH]2)cc1 |
| > 31.2 | CCCN1CCN(c2ccc3nc(-c4ccc5nc(-c6ccc(OCC)cc6)[nH]c5c4)[nH]c3c2)CC1 |
| > 31.2 | CCOc1ccc(-c2nc3ccc(-c4nc5ccc(N6CCN(CC)CC6)cc5[nH]4)cc3[nH]2)cc1 |

test system: Candida albicans; test: Antifungal activity against Candida albicans ATCC MYA-2310 after 48 hrs by CLSI M27-A3 method; type: functional; settings: ATCC MYA-2310, 48 h

| MIC [µg/mL] | Compound |
| --- | --- |
| > 31.2 | C#CCOc1ccc(-c2nc3ccc(-c4nc5ccc(-c6nc7ccc(N8CCN(C)CC8)cc7[nH]6)cc5[nH]4)cc3[nH]2)cc1 |
| > 31.2 | CCCN1CCN(c2ccc3nc(-c4ccc5nc(-c6ccc(OCC)cc6)[nH]c5c4)[nH]c3c2)CC1 |
| 15.6 (≈ 33.4 µM) | CCOc1ccc(-c2nc3ccc(-c4nc5ccc(N6CCN(CC)CC6)cc5[nH]4)cc3[nH]2)cc1 |

| Compound | MIC [µg/mL] |
| --- | --- |
| C[C@@H](c1ncncc1F)[C@](O)(Cn1cncn1)c1ccc(F)cc1F [VORICONAZOLE] | 0.975 (≈ 2.79 µM) |

test system: Candida albicans; test: Antifungal activity against Candida albicans ATCC MYA-1003 after 48 hrs by CLSI M27-A3 method; type: functional; settings: ATCC MYA-1003, 48 h

| MIC [µg/mL] | Compound |
| --- | --- |
| > 31.2 | C#CCOc1ccc(-c2nc3ccc(-c4nc5ccc(-c6nc7ccc(N8CCN(C)CC8)cc7[nH]6)cc5[nH]4)cc3[nH]2)cc1 |
| > 31.2 | CCCN1CCN(c2ccc3nc(-c4ccc5nc(-c6ccc(OCC)cc6)[nH]c5c4)[nH]c3c2)CC1 |
| > 31.2 | CCOc1ccc(-c2nc3ccc(-c4nc5ccc(N6CCN(CC)CC6)cc5[nH]4)cc3[nH]2)cc1 |

| Compound | MIC [µg/mL] |
| --- | --- |
| C[C@@H](c1ncncc1F)[C@](O)(Cn1cncn1)c1ccc(F)cc1F [VORICONAZOLE] | 1.95 (≈ 5.58 µM) |

Reference: ChEMBL document CHEMBL3817731, “Synthesis and investigation of novel benzimidazole derivatives as antifungal agents” (Bioorg Med Chem, 2016)
